Literature values in patent US20240350583A1, “COMPOSITION FOR PREVENTING OR TREATING FIBROTIC DISEASES, COMPRISING HAPLN1” (Chung Ang University Industry Academic Cooperation …, priority 2021, published 2024).

Test system: bleomycin-induced pulmonary fibrosis
Details: group treated with prednisolone (Oku et al.); cited from earlier work

## C[C@]12C=CC(=O)C=C1CC[C@@H]1[C@@H]2[C@@H](O)C[C@@]2(C)[C@H]1CC[C@]2(O)C(=O)CO [prednisolone]
  level of TGFβ1, a measure of anti-fibrotic efficacy: no decrease
  levels of inflammation-related biomarkers: decreased
